Results as given in US20250387398A1, “NEW HIGH-EFFICIENCY ANTIMICROBIAL COMPOSITION” (CM4CURE S.A., priority 2023, published 2025).
Read-outs that look alike come from different tables or passages of the source.

Legend:
[1] = test system: Staphylococcus aureus MRSA; settings: cited from earlier work
Porphyromonas gingivalis = settings: cited from earlier work
Candida tropicalis = settings: cited from earlier work
[2] = test system: Staphylococcus aureus (MRSA, ATCC 6538); experiment: Real-time microcalorimetric measurement of metabolic activity (Calscreener); assay type: cell-based
Procedure: Staphylococcus aureus (MRSA, ATCC 6538) was grown overnight in TSB (tryptic soy broth) medium, before being diluted 1×10^6 fold in fresh TSB. Subsequently […] aliquots of diluted bacteria suspensions were respectively supplemented with 1 and 2 mg/L of chlorhexidine (digluconate solution, 20% in H2O, Merck). […] The aqueous solution of chlorhexidine and the ethanol-based solution of triafluocyl were kept refrigerated. Chlorhexidine, triafluocyl or both, and ethanol as a vehicle were added to the bacterial suspensions to obtain the given concentrations followed by a brief vortexing. Bacterial aliquots were then distributed in the dedicated non-activated inserts of a 48-well plate and grown for 24 h or more under static conditions at 37 C using Calscreener technology to measure bacterial growth and metabolic activity in Real-Time as described in https://cordis.europa.eu/project/id/784514.
In FIG. 3, one sees the real-time microcalorimetric measurements of bacterial metabolic activity expressed as the heat flow, providing S. aureus as an example of Gram-positive bacteria strain. The line A stands for control bacteria with a vehicle at 0.66% ethanol in TSB, whereas the line B represents bacteria treated respectively with 1 mg/L of triafluocyl; C—1 mg/L of chlorhexidine; D—2 mg/L of chlorhexidine; and E—1 mg/L of chlorhexidine with 1 mg/L of triafluocyl.
Staphylococcus aureus (MRSA, ATCC 6538) was grown overnight in TSB (tryptic soy broth) medium, before being diluted 1×10^6 fold in fresh TSB. Subsequently […] aliquots of diluted bacteria suspensions were respectively supplemented with 0.25, 0.5 and 1 μg/mL of chlorhexidine (digluconate solution, 20% in H2O, Merck) or alexidine dihydrochloride (stock solution of 3 mg/mL in ethanol, Merck).
The aqueous solution of chlorhexidine and the ethanol-based solution of alexidine were kept refrigerated. Chlorhexidine, alexidine, and ethanol as a vehicle were added to the bacterial suspensions to obtain the given concentrations followed by a brief vortexing. Bacterial aliquots were then distributed in the dedicated non-activated inserts of a 48-well plate and grown for 24 h or more under static conditions at 37 C using Calscreener technology to measure bacterial growth and metabolic activity in Real-Time as described in https://cordis.europa.eu/project/id/784514.
In FIG. 4 the real-time microcalorimetric measurements of bacterial metabolic activity is expressed as the heat flow, providing S. aureus as an example. The line A stands for control bacteria with a vehicle (ethanol), whereas the line B represents bacteria treated respectively with 0.25 mg/mL of chlorhexidine; C—0.5 mg/mL of chlorhexidine; D—1 mg/mL of chlorhexidine; E—0.25 mg/mL of alexidine; F −0.5 mg/mL of alexidine; and G—1 mg/mL of alexidine.
Staphylococcus aureus (MRSA, ATCC 6538) was grown overnight in TSB (tryptic soy broth) medium, before being diluted 1×10^6 fold in fresh TSB. Subsequently […] aliquots of diluted bacteria suspensions were respectively supplemented with […] of alexidine dihydrochloride (stock solution of 3 mg/mL in ethanol, Merck). […] The ethanol-based solutions of alexidine and fluometacyl were stored at −20° C. […]
In FIG. 5 real-time microcalorimetric measurements of bacterial metabolic activity is expressed as the heat flow, providing S. aureus as an example. […]

[3] = background, cited from earlier work
[4] = test system: Lactobacillus acidophilus; settings: cited from earlier work
Fusobacterium nucleatum = settings: cited from earlier work
Candida krusei = settings: cited from earlier work
Streptococcus mutans = settings: cited from earlier work
Candida albicans (CA) = experiment: MIC in monotherapy and in combination (ISO standard 20776-1); assay type: cell-based
From the text: (§1) Summary Of MIC values for Fluometacyl (FLC)+Chlorhexidine (CHX) Tested Against MRSA, Enterococcusfaecalis (VRE), Pseudomonas aeruginosa (PA) and Candida albicans (CA).
(§2) By Minimum Inhibitory Concentration (MIC) one means the lowest concentration of antimicrobial that prevents visible growth of a microorganism (determined according to ISO standard 20776-1).
(§3) This finds an implication in combining many known antimicrobials together rather than discovering new chemical entities.

[5] = test system: Pseudomonas aeruginosa (PA); experiment: as above; assay type: cell-based
From the text: as §1, §2, §3

[6] = test system: Pseudomonas aeruginosa (ATCC 15442); experiment: Real-time microcalorimetric measurement of metabolic activity (Calscreener); assay type: cell-based
Procedure: Pseudomonas aeruginosa (ATCC 15442) was grown overnight in TSB (tryptic soy broth) medium, before being diluted 1×10^7 fold in fresh TSB. Subsequently […] aliquots of diluted bacteria suspensions were respectively supplemented with 1, 2, 4, 6, 12 and 24 mg/L of chlorhexidine (digluconate solution, 20% in H2O, Merck). The aqueous solution of chlorhexidine was kept refrigerated according to the manufacturer's technical sheet. Chlorhexidine or mQH2O as a vehicle were added to the bacterial suspensions to obtain the given concentrations followed by a brief vortexing. Bacterial aliquots were then distributed in the dedicated non-activated inserts of a 48-well plate and grown for 24 h or more under static conditions at 37 C using Calscreener technology to measure bacterial growth and metabolic activity in Real-Time as described in https://cordis.europa.eu/project/id/784514.
For the study of the combination of chlorhexidine and triafluocyl aforementioned diluted bacterial suspensions were supplemented with either chlorhexidine alone (1, 2, 4, 6, 12 mg/L) or mixed with triafluocyl (20 mg/L, Polpharma). Triafluocyl was stored in absolute ethanol in the refrigerator at a concentration of 3 mg/mL. […]
FIG. 1, illustrates a real-time microcalorimetric measurements of bacterial metabolic activity expressed as the heat flow, providing P. aeruginosa as an example. […]

For `[H]/N=C(\N/C(=N/[H])NCCCCCCNC(=N)NC(=N)Nc1ccc(Cl)cc1)Nc1ccc(Cl)cc1` [Chlorhexidine, chlorhexidine], the MIC of chlorhexdine [1] is listed as 2 to 8 µg/mL, the MIC of chlorhexdine ([1]; listed as chlorexhidrine) is listed as 1 to 8 µg/mL and the MIC of chlorhexdine ([1]; listed as chlorhexidrine) is listed as 1 to 8 µg/mL. The MIC of chlorhexdine (Porphyromonas gingivalis) was 0.9 µg/mL, the MIC of chlorhexdine (Candida tropicalis) was 75 µg/mL and the “effect on growth (heat flow)” value ([2]; chlorhexidine 1 mg/L, FIG. 3) was “strong shift in a metabolic activity”. For the same compound, the “effect on growth (heat flow)” value ([2]; chlorhexidine 1 mg/mL, FIG. 4) was “strong shift in a metabolic activity”, the solubility in water ([3]; chlorhexidine base) was “insoluble in water” and the MIC of chlorhexdine [4] was 0.5 to 2 µg/mL. The MIC of chlorhexdine (Fusobacterium nucleatum) was 1.8 µg/mL, the MIC of chlorhexdine (Candida krusei) was 150 µg/mL and the MIC of chlorhexdine (Streptococcus mutans) was 0.9 to 4 µg/mL.
In the case of `CCCSc1nc(N[C@@H]2C[C@H]2c2ccc(F)c(F)c2)c2nnn([C@@H]3C[C@H](O)[C@@H](O)[C@H]3O)c2n1` [Fluometacyl, (1S,2R,3S,4R)-4-[7-[[(1R,2S)-2-(3,4-Difluorophenyl)cyclopropyl]amino]-5-(propylthio)-3H-1,2,3-triazolo[4,5-d]pyrimidin-3-yl]-1,2,3-cyclopentanetriol], the “MIC Monotherapy (X)” value (Candida albicans (CA)) is given as “Not detected”, the “MIC Monotherapy (X)” value [5] is given as “Not detected” and the “solubility in an aqueous environment or aqueous medium” value [3] is given as “generally not soluble”.
For `CCCSc1nc(N[C@@H]2C[C@H]2c2ccc(F)c(F)c2)c2nnn([C@@H]3C[C@H](OCCO)[C@@H](O)[C@H]3O)c2n1` [Triafluocyl, (1S,2S,3R,5S)-3-[7-[(1R,2S)-2-(3,4-difluorophenyl)cyclopropylamino]-5-(propylthio)-3H-[1,2,3]-triazolo[4,5-d]pyrimidin-3-yl]-5-(2-hydroxyethoxy)-1,2-cyclopentanediol], the “effect on growth (heat flow)” value ([6]; triafluocyl 20 mg/L, FIG. 2) is listed as “does not inhibit the growth”, the “effect on growth (heat flow)” value ([2]; triafluocyl 1 mg/L, FIG. 3) is listed as “doesn't affect the growth” and the “solubility in an aqueous environment or aqueous medium” value [3] is listed as “generally not soluble”.
In the case of alexidine, the “effect on growth (heat flow)” value ([6]; alexidine 4 mg/mL, FIG. 6) is reported as “strong growth inhibition”, the “effect on growth (heat flow)” value ([2]; alexidine 1 mg/mL, FIG. 4) is reported as “full growth inhibition” and the “effect on growth (heat flow), compared with chlorhexidine” value ([2]; alexidine 0.25 and 0.5 mg/mL, FIG. 4) is reported as “noticeably stronger effect”.
